Source: paper doi:10.1101/2021.04.08.439011v1 (biorxiv, 2021)

Key:
Details in all cases: 1 µM; binder
ABL1-phosphorylated = ABL1-phosphorylated (Homo sapiens, UniProt P00519)
AURKA = AURKA (Homo sapiens, UniProt O14965)
BMX = BMX (Homo sapiens, UniProt P51813)
CAMK1G = CAMK1G (Homo sapiens, UniProt Q96NX5)
CSNK1A1L = CSNK1A1L (Homo sapiens, UniProt Q8N752)
DAPK1 = DAPK1 (Homo sapiens, UniProt P53355)
EIF2AK1 = EIF2AK1 (Homo sapiens, UniProt Q9BQI3)
EPHA4 = EPHA4 (Homo sapiens, UniProt P54764)
ERK5 = ERK5 (Homo sapiens, UniProt Q13164)
FGFR1 = FGFR1 (Homo sapiens, UniProt P11362)
HIPK3 = HIPK3 (Homo sapiens, UniProt Q9H422)
HIPK3, sequence (Q9H422 whole entry): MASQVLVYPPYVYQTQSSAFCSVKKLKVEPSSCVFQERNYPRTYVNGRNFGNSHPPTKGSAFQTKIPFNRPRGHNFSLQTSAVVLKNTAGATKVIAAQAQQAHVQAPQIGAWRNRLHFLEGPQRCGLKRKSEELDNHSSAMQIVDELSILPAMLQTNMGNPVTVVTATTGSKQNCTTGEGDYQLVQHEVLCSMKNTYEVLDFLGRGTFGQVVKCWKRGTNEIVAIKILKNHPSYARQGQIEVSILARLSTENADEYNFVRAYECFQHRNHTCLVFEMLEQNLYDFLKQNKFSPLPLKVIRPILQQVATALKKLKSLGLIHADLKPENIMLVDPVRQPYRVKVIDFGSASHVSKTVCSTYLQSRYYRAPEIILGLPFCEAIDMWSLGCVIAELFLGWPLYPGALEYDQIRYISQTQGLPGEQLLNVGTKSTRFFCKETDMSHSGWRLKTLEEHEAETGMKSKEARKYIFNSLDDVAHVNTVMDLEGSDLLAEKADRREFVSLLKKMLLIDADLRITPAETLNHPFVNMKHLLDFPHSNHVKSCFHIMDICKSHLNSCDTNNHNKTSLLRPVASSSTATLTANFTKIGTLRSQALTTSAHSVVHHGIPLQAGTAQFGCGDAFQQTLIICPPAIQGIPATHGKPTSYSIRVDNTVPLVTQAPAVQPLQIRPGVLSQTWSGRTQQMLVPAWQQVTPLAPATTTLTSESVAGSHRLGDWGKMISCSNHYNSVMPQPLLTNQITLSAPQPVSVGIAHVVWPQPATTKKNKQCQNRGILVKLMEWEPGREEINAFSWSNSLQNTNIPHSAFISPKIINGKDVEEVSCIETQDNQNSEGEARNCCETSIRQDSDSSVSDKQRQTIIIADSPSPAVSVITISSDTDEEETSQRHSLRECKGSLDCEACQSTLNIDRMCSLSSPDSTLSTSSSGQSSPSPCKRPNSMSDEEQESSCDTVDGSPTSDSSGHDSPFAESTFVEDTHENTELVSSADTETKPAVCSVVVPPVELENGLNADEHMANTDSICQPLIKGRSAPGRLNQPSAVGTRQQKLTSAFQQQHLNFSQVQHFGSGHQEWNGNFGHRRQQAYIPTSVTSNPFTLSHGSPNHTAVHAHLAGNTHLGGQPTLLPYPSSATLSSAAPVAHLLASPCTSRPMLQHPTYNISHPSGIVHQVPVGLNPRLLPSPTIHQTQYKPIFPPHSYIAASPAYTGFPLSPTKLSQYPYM

IKK-epsilon = IKK-epsilon (Homo sapiens, UniProt Q14164)
KIT(V559D,V654A) = KIT(V559D,V654A) (Homo sapiens, UniProt P10721, V559D/V654A)
LCK = LCK (Homo sapiens, UniProt P06239)
LCK, sequence (P06239 whole entry): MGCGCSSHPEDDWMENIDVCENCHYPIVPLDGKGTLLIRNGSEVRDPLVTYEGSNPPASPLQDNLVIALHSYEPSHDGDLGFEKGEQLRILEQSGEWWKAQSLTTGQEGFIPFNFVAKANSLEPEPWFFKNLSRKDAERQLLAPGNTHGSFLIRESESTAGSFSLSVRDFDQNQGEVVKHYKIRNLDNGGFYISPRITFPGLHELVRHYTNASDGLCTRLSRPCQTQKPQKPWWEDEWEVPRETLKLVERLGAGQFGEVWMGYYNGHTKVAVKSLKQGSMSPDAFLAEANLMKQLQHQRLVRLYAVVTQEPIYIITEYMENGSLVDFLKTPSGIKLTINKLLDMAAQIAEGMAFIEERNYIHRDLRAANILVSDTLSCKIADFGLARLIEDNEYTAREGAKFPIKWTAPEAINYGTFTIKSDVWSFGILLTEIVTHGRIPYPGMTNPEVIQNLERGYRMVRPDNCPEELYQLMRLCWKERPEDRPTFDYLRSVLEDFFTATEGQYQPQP

LZK = LZK (Homo sapiens, UniProt O43283)
MEK6 = MEK6 (Homo sapiens, UniProt P52564)
MKK7 = MKK7 (Homo sapiens, UniProt O14733)
MKK7, sequence (O14733 whole entry): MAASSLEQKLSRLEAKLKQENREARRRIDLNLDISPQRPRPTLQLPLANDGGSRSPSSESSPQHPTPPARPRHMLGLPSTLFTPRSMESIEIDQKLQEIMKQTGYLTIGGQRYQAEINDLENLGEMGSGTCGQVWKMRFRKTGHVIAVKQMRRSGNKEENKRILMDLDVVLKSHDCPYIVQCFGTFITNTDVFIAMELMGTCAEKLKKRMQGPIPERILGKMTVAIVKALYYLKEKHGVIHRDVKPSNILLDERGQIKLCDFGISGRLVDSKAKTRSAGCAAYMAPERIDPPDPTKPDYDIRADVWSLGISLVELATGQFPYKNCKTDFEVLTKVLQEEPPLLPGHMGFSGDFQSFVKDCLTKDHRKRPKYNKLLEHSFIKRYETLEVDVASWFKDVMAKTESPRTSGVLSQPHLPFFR

MRCKB = MRCKB (Homo sapiens, UniProt Q9Y5S2)
NDR1 = NDR1 (Homo sapiens, UniProt Q15208)
OSR1 = OSR1 (Homo sapiens, UniProt O95747)
PAK1 = PAK1 (Homo sapiens, UniProt Q13153)
PAK6 = PAK6 (Homo sapiens, UniProt Q9NQU5)
PCTK1 = PCTK1 (Homo sapiens, UniProt Q00536)
PDPK1 = PDPK1 (Homo sapiens, UniProt O15530)
RIOK1 = RIOK1 (Homo sapiens, UniProt Q9BRS2)
RIPK1 = RIPK1 (Homo sapiens, UniProt Q13546)
RIPK1, sequence (Q13546 whole entry): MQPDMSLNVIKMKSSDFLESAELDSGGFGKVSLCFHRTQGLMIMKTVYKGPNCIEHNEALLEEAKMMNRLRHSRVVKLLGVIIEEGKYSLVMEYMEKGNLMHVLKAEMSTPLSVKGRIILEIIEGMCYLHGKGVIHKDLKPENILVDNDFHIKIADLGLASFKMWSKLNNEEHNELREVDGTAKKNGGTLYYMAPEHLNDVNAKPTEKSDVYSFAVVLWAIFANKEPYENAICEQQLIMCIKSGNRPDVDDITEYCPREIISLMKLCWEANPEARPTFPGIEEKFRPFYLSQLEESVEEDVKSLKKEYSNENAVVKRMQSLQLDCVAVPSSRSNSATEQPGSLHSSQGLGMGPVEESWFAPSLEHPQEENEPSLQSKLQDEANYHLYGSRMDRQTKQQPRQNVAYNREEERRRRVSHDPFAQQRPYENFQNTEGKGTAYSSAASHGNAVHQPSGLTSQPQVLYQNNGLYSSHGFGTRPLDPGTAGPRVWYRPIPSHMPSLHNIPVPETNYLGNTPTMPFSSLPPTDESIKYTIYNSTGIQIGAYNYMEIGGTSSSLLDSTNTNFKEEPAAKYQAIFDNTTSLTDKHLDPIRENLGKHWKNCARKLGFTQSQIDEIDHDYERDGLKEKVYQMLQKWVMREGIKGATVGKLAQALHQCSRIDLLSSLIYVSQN

ROS1 = ROS1 (Homo sapiens, UniProt P08922)
SRPK2 = SRPK2 (Homo sapiens, UniProt P78362)
STK35 = STK35 (Homo sapiens, UniProt Q8TDR2)
STK39 = STK39 (Homo sapiens, UniProt Q9UEW8)
YSK4 = YSK4 (Homo sapiens, UniProt Q56UN5)

ABL1-phosphorylated, sequence (P00519 whole entry): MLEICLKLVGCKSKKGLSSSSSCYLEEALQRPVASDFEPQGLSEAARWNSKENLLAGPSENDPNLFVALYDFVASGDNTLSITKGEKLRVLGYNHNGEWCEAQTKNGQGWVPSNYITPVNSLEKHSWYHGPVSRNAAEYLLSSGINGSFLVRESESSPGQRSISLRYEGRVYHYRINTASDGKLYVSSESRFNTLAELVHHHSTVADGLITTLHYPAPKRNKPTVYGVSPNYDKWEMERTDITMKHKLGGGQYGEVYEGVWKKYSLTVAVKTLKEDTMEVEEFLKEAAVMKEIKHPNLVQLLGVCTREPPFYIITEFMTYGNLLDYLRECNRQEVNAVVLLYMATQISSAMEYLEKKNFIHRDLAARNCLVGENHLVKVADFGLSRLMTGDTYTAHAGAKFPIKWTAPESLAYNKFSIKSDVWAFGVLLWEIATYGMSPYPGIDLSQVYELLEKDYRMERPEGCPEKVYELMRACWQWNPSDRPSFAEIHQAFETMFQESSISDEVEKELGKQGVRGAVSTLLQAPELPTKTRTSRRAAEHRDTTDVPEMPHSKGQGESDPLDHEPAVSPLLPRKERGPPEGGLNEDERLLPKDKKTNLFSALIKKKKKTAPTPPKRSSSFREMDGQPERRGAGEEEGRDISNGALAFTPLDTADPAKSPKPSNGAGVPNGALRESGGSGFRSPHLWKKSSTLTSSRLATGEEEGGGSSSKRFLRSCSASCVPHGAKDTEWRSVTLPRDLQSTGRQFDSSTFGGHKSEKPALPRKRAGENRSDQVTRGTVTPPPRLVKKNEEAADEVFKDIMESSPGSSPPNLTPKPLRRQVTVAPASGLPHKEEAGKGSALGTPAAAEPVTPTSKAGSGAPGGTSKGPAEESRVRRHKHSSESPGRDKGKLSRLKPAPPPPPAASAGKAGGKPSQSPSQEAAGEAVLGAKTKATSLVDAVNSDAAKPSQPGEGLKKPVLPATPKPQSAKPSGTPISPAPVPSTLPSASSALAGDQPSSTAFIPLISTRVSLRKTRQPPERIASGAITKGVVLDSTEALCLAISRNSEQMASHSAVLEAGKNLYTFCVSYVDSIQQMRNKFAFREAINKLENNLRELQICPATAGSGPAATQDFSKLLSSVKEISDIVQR
BMX, sequence (P51813 whole entry): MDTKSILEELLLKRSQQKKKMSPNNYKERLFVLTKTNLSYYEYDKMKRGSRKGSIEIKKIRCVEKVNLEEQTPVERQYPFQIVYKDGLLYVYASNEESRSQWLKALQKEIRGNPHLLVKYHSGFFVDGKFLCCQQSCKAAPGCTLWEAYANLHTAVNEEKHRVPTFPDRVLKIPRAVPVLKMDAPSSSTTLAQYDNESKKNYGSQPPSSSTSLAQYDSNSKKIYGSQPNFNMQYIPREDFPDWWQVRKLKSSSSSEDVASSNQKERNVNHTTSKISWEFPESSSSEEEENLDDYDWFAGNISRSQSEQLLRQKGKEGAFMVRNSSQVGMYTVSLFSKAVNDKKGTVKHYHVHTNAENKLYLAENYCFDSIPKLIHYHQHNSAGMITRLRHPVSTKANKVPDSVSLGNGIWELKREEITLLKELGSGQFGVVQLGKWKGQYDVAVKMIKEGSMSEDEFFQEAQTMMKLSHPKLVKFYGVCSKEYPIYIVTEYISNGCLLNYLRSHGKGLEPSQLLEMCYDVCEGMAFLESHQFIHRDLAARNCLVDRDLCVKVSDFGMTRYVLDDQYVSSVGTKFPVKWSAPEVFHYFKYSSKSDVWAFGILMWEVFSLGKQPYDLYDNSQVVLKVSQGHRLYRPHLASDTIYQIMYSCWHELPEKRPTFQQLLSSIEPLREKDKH
AURKA, sequence (O14965 whole entry): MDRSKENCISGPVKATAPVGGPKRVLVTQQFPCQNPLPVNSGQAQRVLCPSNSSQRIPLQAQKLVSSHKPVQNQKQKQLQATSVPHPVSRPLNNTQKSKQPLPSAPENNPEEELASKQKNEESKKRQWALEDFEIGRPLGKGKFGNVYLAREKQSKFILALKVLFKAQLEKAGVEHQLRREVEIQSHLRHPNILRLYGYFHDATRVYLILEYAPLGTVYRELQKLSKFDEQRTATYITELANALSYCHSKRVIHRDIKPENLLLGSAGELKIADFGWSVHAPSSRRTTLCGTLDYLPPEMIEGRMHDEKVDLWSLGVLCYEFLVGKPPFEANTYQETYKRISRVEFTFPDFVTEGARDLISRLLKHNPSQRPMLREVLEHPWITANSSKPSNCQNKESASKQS

CNc1ncc2cc(-c3ccc(-c4cccc(C)n4)cc3Cl)c(=O)n(C[C@H]3OC[C@H](N)CO3)c2n1 [compound 6, G-5555]
Percent Control (ABL1-phosphorylated): 95% | Percent Control (AURKA): 43% | Percent Control (BMX): 100% | Percent Control (CAMK1G): 99% | Percent Control (CSNK1A1L): 100% | Percent Control (DAPK1): 100% | Percent Control (EIF2AK1): 100% | Percent Control (EPHA4): 100% | Percent Control (ERK5): 52% | Percent Control (FGFR1): 100% | Percent Control (HIPK3): 100% | Percent Control (IKK-epsilon): 78% | Percent Control (KIT(V559D,V654A)): 100% | Percent Control (LCK): 11% | Percent Control (LZK): 100% | Percent Control (MEK6): 30% | Percent Control (MKK7): 77% | Percent Control (MRCKB): 5.3% | Percent Control (NDR1): 70% | Percent Control (OSR1): 100% | Percent Control (PAK1): 4.5% | Percent Control (PAK6): 45% | Percent Control (PCTK1): 100% | Percent Control (PDPK1): 71% | Percent Control (RIOK1): 100% | Percent Control (RIPK1): 100% | Percent Control (ROS1): 100% | Percent Control (SRPK2): 70% | Percent Control (STK35): 100% | Percent Control (STK39): 100% | Percent Control (YSK4): 19%
